# Test results as given in patent US20160000796A1, “PHARMACEUTICAL COMPOSITION FOR USE IN PREVENTION OR TREATMENT OF CANCER” (priority 2013, published 2016).
# What was measured:
# [1] = test system: HTLV-1-producing cell line, HUT102 (derived from ATL); assay: Cellular proliferation test (MTS assay), HUT102; type: cell-based
# Experimental: HTLV-1-producing cell lines, MT2 (transformant with HTLV-1, JCRB cell No: JCRB1210) and HUT102 (ATL-derived cell line, ATCC No: TIB-162), were used.
# (§1) Each nucleoside analogue reverse transcriptase inhibitor was added to the medium for cells at a final concentration of 100 μM. Cells were seeded on a 96-well plate at a concentration of 1×10^4 cells/100 μL/well and cultured for 4 hours (Day 0), 48 hours (Day 2) or 96 hours (Day 4). A medium added DMSO (solvent control) alone was used as a control. Cellular proliferation was examined by MTS assay. Specifically, after the cells were cultured for a predetermined time, a reagent for cellular proliferation test, Aqueous One Solution Cell Proliferation (trade name, manufactured by Promega), was added to the cells. Four hours later, absorbance at 490 nm was measured. The cellular proliferation was represented by a ratio relative to that of the control (solvent control) on Day 0 that was regarded as 1.
# Abacavir was added to MT2 and HUT102 used in Example 1 at a concentration of 0 μM (DMSO was added instead of abacavir), 10 μM, 25 μM, 50 μM, 75 μM or 100 μM. The cells were seeded on a 96-well plate at a concentration of 1×10^4 cells/100 μL/well and cultured for 4 hours or 48 hours. […]
# [2] = test system: ED40515 (+) (non-virus-producing ATL cell line); assay: Cellular proliferation (MTS assay), ED40515 (+); type: cell-based
# Experimental: as §1
# This example used HTLV-1-infected cell lines (non-virus-producing ATL cell lines): ED40515 (−), ED40515 (+), and ATL43T (all were provided by Prof. Michiyuki Maeda who produced the cells); and SYK-11L (+) (prepared in the laboratory of the inventors).
# The six types of nucleoside analogue reverse transcriptase inhibitors as used in Example 1 were used and cellular proliferation was examined in the same manner as in Example 1. […]
# [3] = test system: H9 (non-HTLV-1-infected cell line); assay: Cellular proliferation (MTS assay), H9; type: cell-based; conditions: 100 μM
# Experimental: as §1
# This example used non-HTLV-1-infected cell lines: Jurkat (cell line derived from human T-cell leukemia, ATCC No: TIB-152), Kit225 (cell line derived from chronic T-cell leukemia, established in the laboratory of the inventors, Blood. 1987 October; 70 (4): 1069-72.), H9 (cell line derived from cutaneous T-cell lymphoma, ATCC No: HTB-176) and SUDHL6 (cell line derived from diffuse B cell lymphoma).
# The six types of nucleoside analogue reverse transcriptase inhibitors as used in Example 1 were used and cellular proliferation was examined in the same manner as in Example 1.
# Rad51, γH2AX and PARP = assay: Induction of DNA repair proteins (immunostaining); type: cell-based; conditions: ED40515 (−) versus Jurkat; 100 μM; 48 hours
# Experimental: To an ATL cell line, ED40515 (−), or a non-ATL cell line, Jurkat, DMSO (solvent control) or abacavir was added at a concentration of 100 μM. The cells were cultured for 48 hours. The cells were fixed on slides, immuno-stained for Rad51, γH2AX and PARP, and observed by a fluorescent microscope. At least 70 cells per group were observed and the ratio of cells positive for each protein was calculated. Rad51, which is a homologue of a RecA protein of Escherichia coli, is involved in repair of double-strand DNA break. γH2AX, which is a phosphorylated histone protein, is involved in repair of double-strand DNA break. PARP, which is a poly(ADP-ribose) synthetase, is involved in repair of single-strand DNA break.
# [4] = test system: ATL cell line, ED40515 (−); assay: Cell-cycle analysis by flow cytometry (PI), ED40515 (−); type: cell-based; conditions: 10 μM or 100 μM, 24 hours
# Experimental: (§2) To an ATL cell line, ED40515 (−), or a non-ATL cell line, Jurkat, DMSO (solvent control), adriamycin (ADR, positive control) or abacavir (10 μM or 100 μM) was added.
# [5] = test system: non-ATL cell line, Jurkat; assay: Cell-cycle analysis by flow cytometry (PI), Jurkat; type: cell-based, human; conditions: 10 μM or 100 μM, 24 hours
# Experimental: as §2
# [6] = test system: TDP1-knocked-down cells (Jurkat); assay: Cellular proliferation (MTS) of TDP1-knocked-down cells; type: cell-based, human; conditions: TDP1 siRNA-introduced Jurkat versus control siRNA-introduced cells; 300 μM; 48 hours
# Experimental: The cells were cultured for 48 hours. MTS assay was performed using a reagent for cellular proliferation test, Aqueous One Solution Cell Proliferation (trade name, manufactured by Promega), in the same manner as in Example 1.
# [7] = test system: HOP—62 (lung cancer cell line lacking TDP1 expression); assay: Cellular proliferation (MTS) of lung cancer cell line HOP—62; type: cell-based; conditions: 100, 200 or 300 μM, 72 hours
# Experimental: Lung cancer cell lines lacking TDP1 expression, HOP—62 and NCI_H522, were used. NCI_H1299, a lung cancer cell line expressing TDP1, was used as a control. HOP—62 and NCI_H522 were provided by Dr. Pommier (DNA Repair. 2014 January; 13: 1-9).
# Abacavir was added to each of the cell lines at a concentration of 0 μM (DMSO was added instead of abacavir), 100 μM, 200 μM or 300 μM. The cells were seeded on a 96-well plate at a concentration of 3×10^3 cells/100 μL/well and cultured for 4 hours or 72 hours. After the culture of a predetermined time, MTS assay was performed using a reagent for cellular proliferation, test, Aqueous One Solution Cell Proliferation (trade name, manufactured by Promega), in the same manner as in Example 1. The cellular proliferation was represented by a ratio relative to that of the control (solvent control) on Day 0 that was regarded as 100%.
smiles,measurement,setting,value
"Nc1nc(NC2CC2)c2ncn([C@H]3C=C[C@@H](CO)C3)c2n1 [abacavir, (−)-(1S,4R)-4-[2-amino-6-(cyclopropylamino)-9H-purin-9-yl]-2-cyclopentene-1-methanol]",cellular proliferation (ratio relative to solvent control on Day 0),"[1]; 100 μM, Day 0, 2, 4, compared among six NRTIs",most strongly suppressed
same,"cellular proliferation, dose dependence","[1]; 10, 25, 50, 75, 100 μM, 48 hours",suppressed cellular proliferation of both cell lines in a dose-dependent manner
same,cellular proliferation,[2]; 100 μM,strong suppressive effect
same,"cellular proliferation, dose dependence","[2]; 10-100 μM, Day 0, 2, 4",suppressed cellular proliferation of all the cell lines in a dose-dependent manner
same,cellular proliferation,[3],did not exhibit a suppressive effect
same,ratio of PARP positive cells,"Rad51, γH2AX and PARP","induces Rad51, γH2AX, and PARP specifically in an ATL cell line"
same,ratio of Rad51 positive cells,"Rad51, γH2AX and PARP","induces Rad51, γH2AX, and PARP specifically in an ATL cell line"
same,ratio of γH2AX positive cells,"Rad51, γH2AX and PARP","induces Rad51, γH2AX, and PARP specifically in an ATL cell line"
same,cell cycle (ratio of cells in G0G1/S/G2 phase),[4],induced the S/G2 arrest
same,cell cycle (ratio of cells in G0G1/S/G2 phase),[5],did not affect the cell cycle
same,cellular proliferation relative to abacavir-non-treated cells (100%),[6],significantly lower
same,cellular proliferation,[7],suppressed cellular proliferation of HOP—62 and NCI_H522 lacking TDP1 expression in a concentration dependent manner
